Measured values as given in ChEMBL document CHEMBL1201862, “PubChem BioAssay data set” (2004).
Calls of active or inactive are those of the source.

Tests used:
Type in all cases: functional
[1] = biological target: Protein kinase C theta type (Homo sapiens, UniProt Q04759); experiment: Navigating the Kinome. Panel member name: PRKCQ
[2] = biological target: Dual specificity mitogen-activated protein kinase kinase 1 (Homo sapiens, UniProt Q02750); experiment: Navigating the Kinome. Panel member name: MAP2K1
[3] = biological target: Tyrosine-protein kinase JAK2 (Homo sapiens, UniProt O60674);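 further: JAK2 tested as one member of a kinase panel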
[4] = biological target: Serine/threonine-protein kinase TBK1 (Homo sapiens, UniProt Q9UHD2); experiment: Navigating the Kinome. Panel member name: TBK1
[5] = biological target: ALK tyrosine kinase receptor (Homo sapiens, UniProt Q9UM73);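 further: ALK tested as one member of a kinase panel screen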
ALK tyrosine kinase receptor, sequence (Q9UM73 whole entry): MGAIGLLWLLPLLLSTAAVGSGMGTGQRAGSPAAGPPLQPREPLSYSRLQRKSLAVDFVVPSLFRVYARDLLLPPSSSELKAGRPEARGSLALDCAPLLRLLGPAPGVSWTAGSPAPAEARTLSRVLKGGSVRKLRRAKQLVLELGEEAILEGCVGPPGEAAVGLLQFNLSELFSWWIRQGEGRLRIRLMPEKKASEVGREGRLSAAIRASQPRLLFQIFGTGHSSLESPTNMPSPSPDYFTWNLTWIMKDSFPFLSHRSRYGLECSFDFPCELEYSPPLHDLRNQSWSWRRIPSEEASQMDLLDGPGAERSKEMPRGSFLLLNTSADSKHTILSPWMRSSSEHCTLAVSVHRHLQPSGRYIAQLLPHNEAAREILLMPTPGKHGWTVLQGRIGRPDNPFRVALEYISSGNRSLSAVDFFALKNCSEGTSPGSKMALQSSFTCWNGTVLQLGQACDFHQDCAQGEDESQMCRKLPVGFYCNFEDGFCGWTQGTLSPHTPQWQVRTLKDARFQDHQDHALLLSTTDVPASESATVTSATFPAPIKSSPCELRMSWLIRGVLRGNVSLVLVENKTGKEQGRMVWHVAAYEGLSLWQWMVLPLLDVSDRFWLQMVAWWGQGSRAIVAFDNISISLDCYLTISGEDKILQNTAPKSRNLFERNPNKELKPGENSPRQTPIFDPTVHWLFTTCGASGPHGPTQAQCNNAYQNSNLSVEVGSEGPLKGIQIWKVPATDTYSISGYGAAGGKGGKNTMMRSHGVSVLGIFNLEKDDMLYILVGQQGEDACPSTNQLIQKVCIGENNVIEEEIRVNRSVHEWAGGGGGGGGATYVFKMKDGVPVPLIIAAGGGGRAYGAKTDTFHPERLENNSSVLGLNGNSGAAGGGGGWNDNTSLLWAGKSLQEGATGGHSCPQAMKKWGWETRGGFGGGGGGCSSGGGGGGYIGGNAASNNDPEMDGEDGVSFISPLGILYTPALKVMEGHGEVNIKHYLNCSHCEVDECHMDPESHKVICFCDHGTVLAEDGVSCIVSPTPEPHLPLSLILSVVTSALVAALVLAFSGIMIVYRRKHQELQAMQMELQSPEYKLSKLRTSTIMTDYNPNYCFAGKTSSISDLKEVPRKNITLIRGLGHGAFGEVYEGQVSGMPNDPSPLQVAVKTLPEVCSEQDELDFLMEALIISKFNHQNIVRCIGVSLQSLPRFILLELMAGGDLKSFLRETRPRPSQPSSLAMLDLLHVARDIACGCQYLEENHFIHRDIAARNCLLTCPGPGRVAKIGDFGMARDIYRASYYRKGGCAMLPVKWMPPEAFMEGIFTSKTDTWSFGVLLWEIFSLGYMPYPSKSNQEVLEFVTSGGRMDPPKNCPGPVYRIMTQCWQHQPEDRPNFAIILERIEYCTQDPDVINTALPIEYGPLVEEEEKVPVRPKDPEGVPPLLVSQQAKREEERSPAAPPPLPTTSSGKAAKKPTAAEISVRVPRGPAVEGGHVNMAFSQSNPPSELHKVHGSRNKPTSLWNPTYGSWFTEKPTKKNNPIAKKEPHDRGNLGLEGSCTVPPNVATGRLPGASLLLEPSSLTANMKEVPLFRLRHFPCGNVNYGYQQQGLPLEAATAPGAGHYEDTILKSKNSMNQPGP

[6] = biological target: Proto-oncogene tyrosine-protein kinase receptor Ret (Homo sapiens, UniProt P07949);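 further: measured within a kinome-wide profiling panel, RET as the panel member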
[7] = biological target: Tyrosine-protein kinase receptor TYRO3 (Homo sapiens, UniProt Q06418);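 further: TYRO3 value obtained as one member of a kinome-wide profiling panel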
[8] = biological target: Death-associated protein kinase 3 (Homo sapiens, UniProt O43293);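 further: measured as one member of a kinome-wide profiling panel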
[9] = biological target: Serine/threonine-protein kinase pim-1 (Homo sapiens, UniProt P11309)
Aurora kinase A = Aurora kinase A (Homo sapiens, UniProt O14965);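 further: value from the Navigating the Kinome kinase panel profiling, panel entry STK6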
[10] = biological target: Tyrosine-protein kinase BTK (Homo sapiens, UniProt Q06187)
[11] = biological target: Serine/threonine-protein kinase PAK 4 (Homo sapiens, UniProt O96013);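 further: value obtained within a kinome profiling panel in which PAK4 was one of the panel members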
Serine/threonine-protein kinase PAK 4, sequence (O96013 whole entry): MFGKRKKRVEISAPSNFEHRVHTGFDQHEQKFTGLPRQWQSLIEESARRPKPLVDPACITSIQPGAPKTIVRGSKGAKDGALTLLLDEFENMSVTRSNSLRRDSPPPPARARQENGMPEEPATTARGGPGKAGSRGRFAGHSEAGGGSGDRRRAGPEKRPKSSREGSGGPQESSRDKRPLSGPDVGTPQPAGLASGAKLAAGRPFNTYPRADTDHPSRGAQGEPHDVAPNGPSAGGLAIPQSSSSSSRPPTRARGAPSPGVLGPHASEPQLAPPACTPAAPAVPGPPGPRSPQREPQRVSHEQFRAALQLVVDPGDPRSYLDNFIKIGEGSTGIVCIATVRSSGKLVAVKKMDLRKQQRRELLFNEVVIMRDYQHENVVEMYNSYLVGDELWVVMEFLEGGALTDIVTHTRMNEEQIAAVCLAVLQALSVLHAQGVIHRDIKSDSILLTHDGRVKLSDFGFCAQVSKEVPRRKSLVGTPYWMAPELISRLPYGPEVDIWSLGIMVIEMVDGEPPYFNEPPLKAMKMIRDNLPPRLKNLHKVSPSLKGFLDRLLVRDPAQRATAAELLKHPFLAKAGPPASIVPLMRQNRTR

[12] = biological target: Fibroblast growth factor receptor 1 (Homo sapiens, UniProt P11362)
[13] = biological target: Casein kinase I isoform alpha (Homo sapiens, UniProt P48729)
[14] = biological target: Mitogen-activated protein kinase 9 (Homo sapiens, UniProt P45984);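 further: value from a kinome panel profiling assay, MAPK9 panel entry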
[15] = biological target: Serine/threonine-protein kinase TAO1 (Homo sapiens, UniProt Q7L7X3)
[16] = biological target: Mitogen-activated protein kinase kinase kinase kinase 2 (Homo sapiens, UniProt Q12851);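 further: measured as one member of a kinome-wide kinase panel, with MAP4K2 as the panel entry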
[17] = biological target: Vascular endothelial growth factor receptor 2 (Homo sapiens, UniProt P35968)
Vascular endothelial growth factor receptor 2, sequence (P35968 whole entry): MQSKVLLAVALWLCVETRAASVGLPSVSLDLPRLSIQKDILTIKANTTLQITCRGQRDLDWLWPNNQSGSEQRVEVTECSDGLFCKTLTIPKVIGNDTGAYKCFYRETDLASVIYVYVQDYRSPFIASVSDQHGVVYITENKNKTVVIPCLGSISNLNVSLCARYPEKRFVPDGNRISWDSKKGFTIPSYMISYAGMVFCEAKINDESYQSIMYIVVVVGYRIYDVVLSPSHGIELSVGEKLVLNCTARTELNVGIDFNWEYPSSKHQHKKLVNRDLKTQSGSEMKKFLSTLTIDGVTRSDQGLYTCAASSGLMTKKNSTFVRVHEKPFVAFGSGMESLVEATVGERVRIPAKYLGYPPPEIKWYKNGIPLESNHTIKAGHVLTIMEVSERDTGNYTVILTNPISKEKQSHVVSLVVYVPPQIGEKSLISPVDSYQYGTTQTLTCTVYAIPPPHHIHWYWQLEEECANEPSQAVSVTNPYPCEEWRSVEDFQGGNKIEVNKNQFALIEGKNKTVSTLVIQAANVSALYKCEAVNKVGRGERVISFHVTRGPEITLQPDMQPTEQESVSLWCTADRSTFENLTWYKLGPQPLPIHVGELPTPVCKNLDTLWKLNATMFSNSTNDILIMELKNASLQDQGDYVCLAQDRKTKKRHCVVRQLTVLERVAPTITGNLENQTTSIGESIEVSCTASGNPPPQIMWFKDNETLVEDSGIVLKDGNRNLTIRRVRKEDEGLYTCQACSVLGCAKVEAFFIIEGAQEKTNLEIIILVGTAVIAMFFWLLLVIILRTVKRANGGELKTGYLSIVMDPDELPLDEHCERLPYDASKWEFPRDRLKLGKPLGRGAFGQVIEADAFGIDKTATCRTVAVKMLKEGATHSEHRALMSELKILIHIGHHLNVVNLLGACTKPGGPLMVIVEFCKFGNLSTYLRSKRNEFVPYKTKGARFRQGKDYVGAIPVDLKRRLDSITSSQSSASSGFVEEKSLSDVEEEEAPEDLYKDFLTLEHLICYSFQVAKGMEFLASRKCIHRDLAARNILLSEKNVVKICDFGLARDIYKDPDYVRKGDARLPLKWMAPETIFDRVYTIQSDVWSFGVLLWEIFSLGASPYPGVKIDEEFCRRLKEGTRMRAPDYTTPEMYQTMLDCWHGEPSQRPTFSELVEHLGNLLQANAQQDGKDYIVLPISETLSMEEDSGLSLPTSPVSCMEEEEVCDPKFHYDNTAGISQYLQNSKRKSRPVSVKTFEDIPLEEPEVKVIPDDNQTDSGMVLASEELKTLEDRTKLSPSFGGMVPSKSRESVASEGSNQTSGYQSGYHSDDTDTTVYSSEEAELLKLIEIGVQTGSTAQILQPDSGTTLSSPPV

[18] = biological target: G protein-coupled receptor kinase 5 (Homo sapiens, UniProt P34947); experiment: Navigating the Kinome. Panel member name: GPRK5
G protein-coupled receptor kinase 5, sequence (P34947 whole entry): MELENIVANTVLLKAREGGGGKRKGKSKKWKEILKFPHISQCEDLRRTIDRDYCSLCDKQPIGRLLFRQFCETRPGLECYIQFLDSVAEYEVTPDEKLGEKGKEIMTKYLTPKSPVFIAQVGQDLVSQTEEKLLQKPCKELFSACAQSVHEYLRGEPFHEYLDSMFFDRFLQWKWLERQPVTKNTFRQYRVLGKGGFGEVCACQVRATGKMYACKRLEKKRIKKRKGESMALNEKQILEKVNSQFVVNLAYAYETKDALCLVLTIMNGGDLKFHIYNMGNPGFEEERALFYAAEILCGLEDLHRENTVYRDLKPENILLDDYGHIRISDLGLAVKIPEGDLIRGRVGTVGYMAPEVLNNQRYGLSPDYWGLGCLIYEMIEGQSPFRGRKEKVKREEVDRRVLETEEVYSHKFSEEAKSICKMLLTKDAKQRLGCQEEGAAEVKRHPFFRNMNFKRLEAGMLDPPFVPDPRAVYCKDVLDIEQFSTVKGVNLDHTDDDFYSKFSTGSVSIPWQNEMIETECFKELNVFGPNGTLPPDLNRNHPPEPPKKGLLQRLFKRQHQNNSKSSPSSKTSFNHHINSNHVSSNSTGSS

[19] = biological target: Cyclin-dependent kinase 5 (Homo sapiens, UniProt Q00535);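 further: CDK5 measured as one member of a kinase profiling panel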
[20] = biological target: Insulin-like growth factor 1 receptor (Homo sapiens, UniProt P08069); experiment: Navigating the Kinome. Panel member name: IGF1R
[21] = biological target: Dual specificity tyrosine-phosphorylation-regulated kinase 1B (Homo sapiens, UniProt Q9Y463); experiment: Navigating the Kinome. Panel member name: DYRK1B
[22] = biological target: cAMP-dependent protein kinase catalytic subunit PRKX (Homo sapiens, UniProt P51817)
[23] = biological target: Platelet-derived growth factor receptor alpha (Homo sapiens, UniProt P16234); experiment: Navigating the Kinome. Panel member name: PDGFRA
[24] = biological target: Rho-associated protein kinase 1 (Homo sapiens, UniProt Q13464);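 further: measured within a broad kinome-wide panel profiling many kinases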
[25] = biological target: Cyclin-dependent kinase 8 (Homo sapiens, UniProt P49336); experiment: Navigating the Kinome. Panel member name: CDK8
Cyclin-dependent kinase 8, sequence (P49336 whole entry): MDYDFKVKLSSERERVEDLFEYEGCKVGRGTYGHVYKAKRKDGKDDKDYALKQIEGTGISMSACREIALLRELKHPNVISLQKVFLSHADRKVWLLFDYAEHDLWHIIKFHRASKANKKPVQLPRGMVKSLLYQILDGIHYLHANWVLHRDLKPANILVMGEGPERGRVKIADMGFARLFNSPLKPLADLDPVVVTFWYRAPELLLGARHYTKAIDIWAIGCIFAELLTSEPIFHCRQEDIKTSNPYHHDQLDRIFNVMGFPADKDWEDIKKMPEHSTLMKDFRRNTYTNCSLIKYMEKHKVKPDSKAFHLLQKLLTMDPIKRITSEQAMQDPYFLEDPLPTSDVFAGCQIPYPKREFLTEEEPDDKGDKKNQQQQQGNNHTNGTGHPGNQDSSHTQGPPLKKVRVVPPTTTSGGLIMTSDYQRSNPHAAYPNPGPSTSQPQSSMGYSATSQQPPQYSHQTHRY

[26] = biological target: Cyclin-dependent kinase 7 (Homo sapiens, UniProt P50613);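 further: value comes from a kinome-wide kinase profiling panel in which CDK7 is one member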
[27] = biological target: Vascular endothelial growth factor receptor 1 (Homo sapiens, UniProt P17948);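 further: measured within a kinome-wide profiling panel, FLT1 as the panel member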
[28] = biological target: Glycogen synthase kinase-3 beta (Homo sapiens, UniProt P49841);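 further: value comes from a broad kinome profiling panel, with GSK3B as the panel member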
[29] = biological target: Cyclin-dependent kinase 9 (Homo sapiens, UniProt P50750);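 further: value from the CDK9 entry of a kinome-spanning kinase panel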
[30] = biological target: BDNF/NT-3 growth factors receptor (Homo sapiens, UniProt Q16620);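 further: NTRK2 measured as one member of a broad kinome-wide kinase profiling panel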
[31] = biological target: Dual specificity protein kinase CLK4 (Homo sapiens, UniProt Q9HAZ1)
[32] = biological target: Mitogen-activated protein kinase kinase kinase kinase 4 (Homo sapiens, UniProt O95819)
[33] = biological target: Macrophage-stimulating protein receptor (Homo sapiens, UniProt Q04912); experiment: Navigating the Kinome. Panel member name: MST1R
[34] = biological target: Macrophage colony-stimulating factor 1 receptor (Homo sapiens, UniProt P07333);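 further: value comes from the Navigating the Kinome screening panel, CSF1R member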
[35] = biological target: Dual specificity mitogen-activated protein kinase kinase 2 (Homo sapiens, UniProt P36507); experiment: Navigating the Kinome. Panel member name: MAP2K2
[36] = biological target: Dual specificity tyrosine-phosphorylation-regulated kinase 1A (Homo sapiens, UniProt Q13627);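 further: measured against DYRK1A as one member of a broad kinome profiling panel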
[37] = biological target: Inhibitor of nuclear factor kappa-B kinase subunit epsilon (Homo sapiens, UniProt Q14164); experiment: Navigating the Kinome. Panel member name: IKBKE
[38] = biological target: Calcium/calmodulin-dependent protein kinase type II subunit alpha (Homo sapiens, UniProt Q9UQM7); experiment: Navigating the Kinome. Panel member name: CAMK2A
Calcium/calmodulin-dependent protein kinase type II subunit alpha, sequence (Q9UQM7 whole entry): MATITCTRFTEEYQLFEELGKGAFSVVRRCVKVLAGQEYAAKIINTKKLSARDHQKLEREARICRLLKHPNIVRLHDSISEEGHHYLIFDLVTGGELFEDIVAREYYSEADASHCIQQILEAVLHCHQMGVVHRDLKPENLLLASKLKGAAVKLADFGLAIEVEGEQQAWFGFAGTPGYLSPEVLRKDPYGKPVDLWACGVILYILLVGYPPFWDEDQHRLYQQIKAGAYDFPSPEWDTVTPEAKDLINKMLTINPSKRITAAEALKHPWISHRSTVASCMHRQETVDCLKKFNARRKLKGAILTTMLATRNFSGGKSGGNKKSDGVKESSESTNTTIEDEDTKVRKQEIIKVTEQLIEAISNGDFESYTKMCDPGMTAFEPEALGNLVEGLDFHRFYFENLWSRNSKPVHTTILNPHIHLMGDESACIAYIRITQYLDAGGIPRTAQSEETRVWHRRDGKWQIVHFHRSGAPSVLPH

[39] = biological target: Leukocyte tyrosine kinase receptor (Homo sapiens, UniProt P29376); experiment: Navigating the Kinome. Panel member name: LTK

| Ki [1] | Ki [2] | Ki [3] | Ki [4] | Ki [5] | Ki [6] | Ki [7] | Ki [9] | Ki (Aurora kinase A) | Ki [10] | Ki [11] | Ki [12] | Ki [13] | Ki [14] | Ki [15] | Ki [16] | Ki [17] | Ki [18] | Ki [19] | Compound | Ki [8] | also measured |
| --- | --- | --- | --- | --- | --- | --- | --- | --- | --- | --- | --- | --- | --- | --- | --- | --- | --- | --- | --- | --- | --- |
| 0.631 µM (active) | > 3.16 µM (inactive) | > 2.51 µM (inactive) | > 3.16 µM (inactive) | > 6.31 µM (inactive) | > 3.16 µM (inactive) | > 3.16 µM (inactive) | > 6.31 µM (inactive) | > 1.58 µM (inactive) | > 6.31 µM (inactive) | > 5.01 µM (inactive) | > 3.98 µM (inactive) | > 3.98 µM (inactive) | > 3.98 µM (inactive) | > 6.31 µM (inactive) | > 2.51 µM (inactive) | > 2.51 µM (inactive) | > 3.98 µM (inactive) | > 3.16 µM (inactive) | COc1cccc(C(C)NC(=O)c2cnc(-c3ccncc3)nc2)c1 (stereo not given) | > 5.01 µM (inactive) | Ki [20]: > 2.51 µM (inactive); Ki [21]: > 2.51 µM (inactive); Ki [22]: 1.26 µM (active); Ki [23]: > 2.51 µM (inactive); Ki [24]: 0.00398 µM (active); Ki [25]: > 3.98 µM (inactive); Ki [26]: > 3.98 µM (inactive); Ki [27]: > 3.98 µM (inactive); Ki [28]: 1.58 µM (active); Ki [29]: > 1.58 µM (inactive); Ki [30]: > 3.98 µM (inactive); Ki [31]: > 2.51 µM (inactive); Ki [32]: > 5.01 µM (inactive); Ki [33]: 0.398 µM (active); Ki [34]: > 2.51 µM (inactive); Ki [35]: > 3.98 µM (inactive); Ki [36]: > 2 µM (inactive); Ki [37]: > 3.16 µM (inactive); Ki [38]: > 7.94 µM (inactive); Ki [39]: > 2.51 µM (inactive) |
| 2 µM (active) | > 3.16 µM (inactive) | > 2.51 µM (inactive) | > 3.16 µM (inactive) | > 6.31 µM (inactive) | > 3.16 µM (inactive) | > 3.16 µM (inactive) | > 6.31 µM (inactive) | > 1.58 µM (inactive) | > 6.31 µM (inactive) | > 5.01 µM (inactive) | > 3.98 µM (inactive) | > 3.98 µM (inactive) | > 3.98 µM (inactive) | > 6.31 µM (inactive) | > 2.51 µM (inactive) | > 2.51 µM (inactive) | > 3.98 µM (inactive) | > 3.16 µM (inactive) | CCCOc1cccc(C(C)NC(=O)c2ccc(-c3ccncc3F)cc2)c1 (stereo not given) | > 5.01 µM (inactive) | Ki [20]: > 2.51 µM (inactive); Ki [21]: > 2.51 µM (inactive); Ki [22]: 0.501 µM (active); Ki [23]: > 2.51 µM (inactive); Ki [24]: 0.000794 µM (active); Ki [25]: > 3.98 µM (inactive); Ki [26]: > 3.98 µM (inactive); Ki [27]: > 3.98 µM (inactive); Ki [28]: 2.51 µM (active); Ki [29]: > 1.58 µM (inactive); Ki [30]: > 3.98 µM (inactive); Ki [31]: 0.1 µM (active); Ki [32]: > 5.01 µM (inactive); Ki [33]: > 3.98 µM (inactive); Ki [34]: > 2.51 µM (inactive); Ki [35]: > 3.98 µM (inactive); Ki [36]: > 2 µM (inactive); Ki [37]: > 3.16 µM (inactive); Ki [38]: > 7.94 µM (inactive); Ki [39]: > 2.51 µM (inactive) |
